Source: patent US10016382B2, “Method for decreasing skeletal muscle damage and/or oxidative stress in mammals” (LONZA INC., priority 2014, dated 2018)

System: Labrador Retrievers
Assay: Energy expenditure on treadmill (Oxymax open-circuit calorimeter), Example 2 part three
Type: in vivo, dog
Settings: for Max energy expenditure / Mean energy expenditure: females
Procedure: Sixteen Labrador Retrievers ranging in age from 1.5 to 3 years were fed low carnitine basal diets with and without added L-carnitine for a 37 week period that included part one and two of the study. Eight (4 male and 4 female) of the test L-carnitine dogs were each fed 3.75 g sugar and 250 mg of L-carnitine, while the other eight dogs (4 male and 4 female) were fed only 4 g of sugar each day for the experimental period. The sixteen test dogs were fed the same diet for parts one, two, and three of the study. During part three of the study, the 16 test dogs were exclusively exercised on the industry sized canine treadmill. Initial Oxymax data was developed for each of the test dogs at various times and speeds in order to determine appropriate speeds on the treadmill required to achieve maximum VO2 concentration. The dogs were run for 15 minutes at 6.5 mph to determine VO2 max. The 16 test dogs were then ran at 50% VO2 max (equivalent to 4 mph) on the treadmill for 30 minutes to determine total energy expenditure (heat production). The system used to acquire information on volume of oxygen consumption and energy expenditure was an Open-Circuit calorimeter, which employed air from the surrounding environment. A mask specially designed for dogs was used to recover the gas sample and ventilate the dog. A small sample was drawn for gas analysis and dried to assure that the readings were made in a sample that was not under the influence of water vapor air exiting the chamber. The O2 and CO2 sensors were connected to software, and instant values of O2 and CO2 were measured. The 16 test dogs (8 L-carnitine dogs, 4 male and 4 female, and 8 control dogs, 4 male and 4 female) were exercised at a warm up speed of 2 mph for 5 minutes prior to running at VO2 max for 15 minutes at 6.5 mph. The next week, the test dogs ran again at a warm up speed of 2 mph for 5 minutes and then at 50% VO2 max for 30 minutes at 4 mph. Energy expenditure was calculated using the formula for dogs (EE (kcal/d)=3.94 VO2+1.11 V CO2) (Weir, […]). The maximum and mean energy expenditure was also calculated. Energy expenditure was reported at Kcal/metabolic body weight (Kg^0.75)/d as normally expressed in the literature for dogs.

[1] = Ex.2 part three, 250 mg/d, 6.5 mph (VO2 max)
[2] = Ex.2 part three, 250 mg/d, 50% VO2 max (4 mph, 30 min)
[3] = combined speeds 4.0 and 6.5 (50% VO2 Max and VO2 Max), diet main effect, both genders
[4] = combined speeds 4.0 and 6.5 (50% VO2 Max and VO2 Max), female dogs
[5] = combined speeds 4.0 and 6.5 (50% VO2 Max and VO2 Max), male dogs
[6] = treadmill speed 4 for 30 min (50% VO2 Max), diet main effect, both genders
[7] = treadmill speed 4 for 30 min (50% VO2 Max), female dogs
[8] = treadmill speed 4 for 30 min (50% VO2 Max), male dogs
[9] = treadmill speed 6.5 for 15 min (VO2 Max), diet main effect, both genders
[10] = treadmill speed 6.5 for 15 min (VO2 Max), female dogs
[11] = treadmill speed 6.5 for 15 min (VO2 Max), male dogs

## C[N+](C)(C)C[C@H](O)CC(=O)[O-] [L-carnitine]
Ex.2 part three, 250 mg/d, female running at 50% of VO2 Max
  Additional heat expenditure vs non-L-carnitine diet: 122 kcal/kg BW^0.75/d
[1]
  Max energy expenditure: 961 kcal/kgBW^0.75/d
  Mean energy expenditure: 815 kcal/kgBW^0.75/d
[2]
  Max energy expenditure: 794 kcal/kg^0.75/d
  Mean energy expenditure: 598 kcal/kg^0.75/d
Ex.2 part three, 250 mg/d, males, Tables 35 and 36
  Max and mean energy expenditure vs low carnitine dogs: not significantly different
Ex.2 part three, 250 mg/d, working female running at 50% VO2 Max (4 mph) for one hour
  Quantity of low Carnitine basal food saved: 15.18 g
[3]
  Max EE: 793 Kcal/Kg^0.75/d
  Mean EE: 675 Kcal/Kg^0.75/d
[4]
  Max EE: 838 Kcal/Kg^0.75/d
  Mean EE: 679 Kcal/Kg^0.75/d
[5]
  Max EE: 748 Kcal/Kg^0.75/d
  Mean EE: 671 Kcal/Kg^0.75/d
[6]
  Max EE: 716 Kcal/Kg^0.75/d
  Mean EE: 576 Kcal/Kg^0.75/d
[7]
  Max EE: 794 a Kcal/Kg^0.75/d
  Mean EE: 598 a Kcal/Kg^0.75/d
[8]
  Max EE: 637 ab Kcal/Kg^0.75/d
  Mean EE: 554 ab Kcal/Kg^0.75/d
[9]
  Max EE: 909 Kcal/Kg^0.75/d
  Mean EE: 801 Kcal/Kg^0.75/d
[10]
  Max EE: 961 Kcal/Kg^0.75/d
  Mean EE: 815 Kcal/Kg^0.75/d
[11]
  Max EE: 858 Kcal/Kg^0.75/d
  Mean EE: 788 Kcal/Kg^0.75/d
